Assay [1] deals with T1, recombinant mouse TRPC3b channels (Mus musculus, UniProt Q9QZC1, R524G).
T1 construct: Full length mouse TRPC3 transcripts were obtained by PCR; expressed in transfected cells; host or cells: HEK293 cells, stably transfected (pIRES-DsRed2 vector)
T1 sequence (Q9QZC1 75-910 R524G limits assumed): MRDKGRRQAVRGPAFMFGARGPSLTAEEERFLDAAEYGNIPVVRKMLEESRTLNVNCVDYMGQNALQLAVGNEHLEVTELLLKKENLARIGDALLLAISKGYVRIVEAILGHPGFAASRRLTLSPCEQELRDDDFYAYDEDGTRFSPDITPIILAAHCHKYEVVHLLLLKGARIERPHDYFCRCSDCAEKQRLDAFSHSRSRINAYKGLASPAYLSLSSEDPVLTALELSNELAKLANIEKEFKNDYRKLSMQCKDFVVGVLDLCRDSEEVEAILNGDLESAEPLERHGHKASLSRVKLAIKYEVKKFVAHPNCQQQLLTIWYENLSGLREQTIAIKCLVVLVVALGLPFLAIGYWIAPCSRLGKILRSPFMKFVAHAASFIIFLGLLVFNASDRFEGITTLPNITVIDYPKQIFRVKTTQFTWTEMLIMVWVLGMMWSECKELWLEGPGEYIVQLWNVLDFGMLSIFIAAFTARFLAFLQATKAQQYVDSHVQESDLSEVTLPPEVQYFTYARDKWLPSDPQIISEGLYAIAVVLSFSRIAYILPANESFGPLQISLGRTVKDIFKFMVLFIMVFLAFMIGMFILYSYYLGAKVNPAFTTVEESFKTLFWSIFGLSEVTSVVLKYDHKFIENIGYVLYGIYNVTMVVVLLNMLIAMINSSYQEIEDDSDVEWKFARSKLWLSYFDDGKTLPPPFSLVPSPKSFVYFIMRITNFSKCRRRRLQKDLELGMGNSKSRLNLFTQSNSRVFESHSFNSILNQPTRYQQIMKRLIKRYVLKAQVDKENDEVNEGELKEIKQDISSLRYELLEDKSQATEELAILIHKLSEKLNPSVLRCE
The assay can be described thus: Indo-1 ratiometric Ca2+ imaging of CCh-activated Ca2+ entry, HEK293 cells expressing TRPC3b. The format is cell-based. The following applies: genistein 200 μM pre-incubation, n=5, without genistein 182.7±20.8 nM. The procedure: (§1) The TRPC3-mediated Ca^2+ entry through two distinct activation pathways was assessed by microfluorometric Ca^2+ imaging: i) Ca^2+ entry via the M3 receptor-PLCB-DAG pathway endogenous to HEK293 cells, using Indo-1 as a Ca^2+ indicator; and ii) Ca^2+ entry via mGluR1-PLCB-DAG through co-expression of the mGluR1, using Fluo-4 as a Ca^2+ indicator.
Cells were grown in DMEM media on 18 mm circular coverslips coated with poly-D-lysine (25 μg/ml) and collagen (25 μg/ml) at 1:1 ratio. The cells were washed with HPSS. The coverslips were then incubated with HPSS and 0.1% pluronic acid, along with either 1 μM Indo-1AM or Fluo-4AM Ca^2+ indicator (Invitrogen, U.S.A.) for an hour prior to the experiment. The cells were then placed into HPSS with 5 μM GdCl3 to block endogenous Ca^2+ entry (added to all superfusions). The M3 AChR-mediated TRPC3 activation was achieved by bath application of carbachol. The mGluR1-mediated TRPC3 activation was achieved by bath application of DHPG.
For Indo-1 experiments, the cells were mounted on a Nikon TMD inverted microscope fitted with an Indo-1 filter set (Nikon Indo-1 filter cube, 485 nm/DM455 nm/405 nm) and illuminated with a mercury lamp. Cells were excited at 350 nm, with dual emission of the field was detected at 410 nm and 480 nm using two photomultiplier tubes, and the ratioed emission was determined in real-time using in-house software. […]

For assay [2], the target named is T2, recombinant mouse TRPC3b channels (Mus musculus, UniProt Q9QZC1, R524G).
T2 construct: Full length mouse TRPC3 transcripts were obtained by PCR; expressed in transfected cells; host or cells: HEK293 cells stably expressing TRPC3b, additionally transfected with mGluR1-eYFP cDNA
T2 sequence (Q9QZC1 75-910 R524G): T1 sequence (Q9QZC1 75-910 R524G limits assumed)
The assay can be described thus: Fluo-4 Ca2+ imaging of DHPG-activated Ca2+ entry, HEK293 cells co-expressing TRPC3b and mGluR1. The following applies: genistein 200 μM pre-application, n=6, without genistein 1.56±0.0713. The format is cell-based. As to the method: as §1
Cells were grown in DMEM media on 18 mm circular coverslips coated with poly-D-lysine (25 μg/ml) and collagen (25 μg/ml) at 1:1 ratio. The cells were washed with HPSS. The coverslips were then incubated with HPSS and 0.1% pluronic acid, along with either 1 μM Indo-1AM or Fluo-4AM Ca^2+ indicator (Invitrogen, U.S.A.) for an hour prior to the experiment. […]
For Fluo-4 experiments, the cells were mounted on an inverted microscope (DMIL, Leica) with a 20× 0.4NA objective (Leica HCX PL Fluotar), and illuminated with a mercury lamp using a GFP filter (part no. 11504164; excitation 470/40 nm, dichroic 500 nm, emission 525/50 nm) every 5 seconds (Andor iXon+ 885 EMCCD Camera, Ireland) with a gated shutter (Ludl Electronic Products, U.S.A.), controlled via Andor IQ (v1.8.1) software. The images were then analysed using Image J software (NIH, U.S.A.) with individual regions of interest (ROIs) identified for HEK293 cells responding to M3 or mGluR1 agonists with increased Ca^2+ signal. […]

The results in this text go back to US20170202932A1, “METHODS FOR INHIBITING NEURON APOPTOSIS AND NECROSIS” (NEWSOUTH INNOVATIONS PTY LIMITED, priority 2012, published 2017).

On to `O=c1c(-c2ccc(O)cc2)coc2cc(O)cc(O)c12` [genistein, 4′, 5,7-trihydroxyisoflavone], for which the “peak [Ca2+] on return of extracellular Ca2+ (CCh-activated Ca2+ entry)” value in assay [1] came out at 86.7 ± 8.7 nM. In addition, in assay [2], the “Fluo-4 fluorescence F/F0 (TRPC3-mediated Ca2+ entry after DHPG)” value is recorded as 1.031±0.0144.
